Tested on: 233499-124-R-J3-PDC complex spheroid growth
Test: Anticancer human tumor 233499-124-R-J3-PDC patient-derived colon adenocarcinoma cell line growth inhibition [AhR]
Details: for IC50: curve of first compound; for viability, T/C: stronger effect = lower value
Procedure, shortened: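 Agents were dosed in half-log steps down from roughly clinical Cmax, or from 10 microM where Cmax was unknown, alone and with AhR antagonists. Read-out: percent test/control growth of tumor spheroids containing HUVEC and MSC stromal cells.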

[1] = second compound 0.1 µM, first compound 0.0316 µM
[2] = second compound 0.1 µM, first compound 0.1 µM
[3] = second compound 0.1 µM, first compound 0.316 µM
[4] = second compound 0.1 µM, first compound 1 µM
[5] = second compound 0.1 µM, first compound 3.16 µM
[6] = second compound 0.1 µM, first compound 10 µM
[7] = second compound 0.316 µM, first compound 0.0316 µM
[8] = second compound 0.316 µM, first compound 0.1 µM
[9] = second compound 0.316 µM, first compound 0.316 µM
[10] = second compound 0.316 µM, first compound 1 µM
[11] = second compound 0.316 µM, first compound 3.16 µM
[12] = second compound 0.316 µM, first compound 10 µM
[13] = second compound 1 µM, first compound 0.0316 µM
[14] = second compound 1 µM, first compound 0.1 µM
[15] = second compound 1 µM, first compound 0.316 µM
[16] = second compound 1 µM, first compound 1 µM
[17] = second compound 1 µM, first compound 3.16 µM
[18] = second compound 1 µM, first compound 10 µM
[19] = second compound 3.16 µM, first compound 0.0316 µM
[20] = second compound 3.16 µM, first compound 0.1 µM
[21] = second compound 3.16 µM, first compound 0.316 µM
[22] = second compound 3.16 µM, first compound 1 µM
[23] = second compound 3.16 µM, first compound 3.16 µM
[24] = second compound 3.16 µM, first compound 10 µM
[25] = second compound 10 µM, first compound 0.0316 µM
[26] = second compound 10 µM, first compound 0.1 µM
[27] = second compound 10 µM, first compound 0.316 µM
[28] = second compound 10 µM, first compound 1 µM
[29] = second compound 10 µM, first compound 3.16 µM
[30] = second compound 10 µM, first compound 10 µM
[31] = second compound 0.1 µM, first compound 0.00316 µM
[32] = second compound 0.1 µM, first compound 0.01 µM
[33] = second compound 0.316 µM, first compound 0.00316 µM
[34] = second compound 0.316 µM, first compound 0.01 µM
[35] = second compound 1 µM, first compound 0.00316 µM
[36] = second compound 1 µM, first compound 0.01 µM
[37] = second compound 3.16 µM, first compound 0.00316 µM
[38] = second compound 3.16 µM, first compound 0.01 µM
[39] = second compound 10 µM, first compound 0.00316 µM
[40] = second compound 10 µM, first compound 0.01 µM
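Further: spheroids exposed to agents for seven days before reading.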

| Compound | IC50 (second compound 0.1 µM) | IC50 (second compound 0.316 µM) | IC50 (second compound 1 µM) | IC50 (second compound 3.16 µM) | IC50 (second compound 10 µM) | viability, T/C [1] | viability, T/C [2] | viability, T/C [3] | viability, T/C [4] | viability, T/C [7] | viability, T/C [8] | viability, T/C [9] | viability, T/C [10] | viability, T/C [13] | viability, T/C [14] | viability, T/C [15] | viability, T/C [19] | viability, T/C [20] | viability, T/C [25] | viability, T/C [26] | also measured |
| --- | --- | --- | --- | --- | --- | --- | --- | --- | --- | --- | --- | --- | --- | --- | --- | --- | --- | --- | --- | --- | --- |
| CC(C)c1c(-c2ccccc2)nc2c(C#N)c[nH]n2c1=O + Cc1ccccc1N=Nc1ccc(NC(=O)c2ccnn2C)c(C)c1 | > 10000 nM | > 10000 nM | > 10000 nM | > 10000 nM | > 10000 nM | 110% | 98.9% | 101% | 112% | 100% | 108% | 92.3% | 104% | 110% | 110% | 98.7% | 102% | 99.5% | 103% | 102% | viability, T/C [5]: 95.2%; viability, T/C [6]: 105%; viability, T/C [11]: 118%; viability, T/C [12]: 107%; viability, T/C [16]: 102%; viability, T/C [17]: 106%; viability, T/C [18]: 106%; viability, T/C [21]: 103%; viability, T/C [22]: 110%; viability, T/C [23]: 108%; viability, T/C [24]: 105%; viability, T/C [27]: 107%; viability, T/C [28]: 101%; viability, T/C [29]: 89%; viability, T/C [30]: 85.3% |
| COc1cc(C2c3cc4c(cc3C(OC3OC5COC(C)OC5C(O)C3O)C3COC(=O)C23)OCO4)cc(OC)c1O (stereo not given) + Cc1cncc(-c2nc(NCCc3c[nH]c4ccccc34)c3ncn(C(C)C)c3n2)c1 | > 10000 nM | > 10000 nM | > 10000 nM | > 10000 nM | < 31.6 nM | 92.6% | 101% | 109% | 95.4% | 91.7% | 89.8% | 86% | 81.6% | 77.5% | 84.4% | 77.3% | 78.9% | 79.5% | 9.81% | 11.9% | viability, T/C [5]: 98.6%; viability, T/C [6]: 92.9%; viability, T/C [11]: 83.9%; viability, T/C [12]: 88.5%; viability, T/C [16]: 88%; viability, T/C [17]: 79.8%; viability, T/C [18]: 69.9%; viability, T/C [21]: 77.4%; viability, T/C [22]: 73%; viability, T/C [23]: 74.1%; viability, T/C [24]: 55.9%; viability, T/C [27]: 30.9%; viability, T/C [28]: 30.1%; viability, T/C [29]: 22.2%; viability, T/C [30]: 9.08% |
| Nc1ncn(C2CC(O)C(CO)O2)c(=O)n1 (stereo not given) + Cc1cncc(-c2nc(NCCc3c[nH]c4ccccc34)c3ncn(C(C)C)c3n2)c1 | > 1000 nM | > 1000 nM | > 1000 nM | > 1000 nM | < 3.16 nM | 91.3% | 88% | 87.8% | 81.2% | 84.6% | 84% | 87.4% | 96.9% | 86.8% | 81% | 82.9% | 82.4% | 81% | 36.8% | 44.8% | viability, T/C [31]: 97.4%; viability, T/C [32]: 85%; viability, T/C [33]: 88.8%; viability, T/C [34]: 89.8%; viability, T/C [35]: 82.9%; viability, T/C [36]: 83.9%; viability, T/C [16]: 93.4%; viability, T/C [37]: 82.7%; viability, T/C [38]: 76.2%; viability, T/C [21]: 76.5%; viability, T/C [22]: 88.6%; viability, T/C [39]: 16.3%; viability, T/C [40]: 26.8%; viability, T/C [27]: 21.5%; viability, T/C [28]: 26.4% |

More lines, main results first:

| IC50 (second compound 0.1 µM) | IC50 (second compound 0.316 µM) | IC50 (second compound 1 µM) | IC50 (second compound 3.16 µM) | IC50 (second compound 10 µM) | Compound | viability, T/C [1] | viability, T/C [2] | viability, T/C [3] | viability, T/C [4] | viability, T/C [7] | viability, T/C [8] | viability, T/C [9] | viability, T/C [10] | viability, T/C [13] | viability, T/C [14] | viability, T/C [15] | viability, T/C [19] | viability, T/C [20] | viability, T/C [25] | viability, T/C [26] | also measured |
| --- | --- | --- | --- | --- | --- | --- | --- | --- | --- | --- | --- | --- | --- | --- | --- | --- | --- | --- | --- | --- | --- |
| > 100 nM | > 100 nM | > 100 nM | > 100 nM | < 0.316 nM | CC[C@@]1(O)C(=O)OCc2c1cc1n(c2=O)Cc2cc3c(CN(C)C)c(O)ccc3nc2-1 + Cc1cncc(-c2nc(NCCc3c[nH]c4ccccc34)c3ncn(C(C)C)c3n2)c1 | 97.6% | 92.6% | – | – | 101% | 69.6% | – | – | 85.2% | 68% | – | 83.3% | 63.2% | 12.9% | 16.9% | viability, T/C (second compound 0.1 µM, first compound 0.000316 µM): 101%; viability, T/C (second compound 0.1 µM, first compound 0.001 µM): 94.2%; viability, T/C [31]: 92.1%; viability, T/C [32]: 94.6%; viability, T/C (second compound 0.316 µM, first compound 0.000316 µM): 92.1%; viability, T/C (second compound 0.316 µM, first compound 0.001 µM): 82.3%; viability, T/C [33]: 84.4%; viability, T/C [34]: 78.5%; viability, T/C (second compound 1 µM, first compound 0.000316 µM): 84.1%; viability, T/C (second compound 1 µM, first compound 0.001 µM): 76%; viability, T/C [35]: 77.8%; viability, T/C [36]: 70.3%; viability, T/C (second compound 3.16 µM, first compound 0.000316 µM): 87.8%; viability, T/C (second compound 3.16 µM, first compound 0.001 µM): 71.5%; viability, T/C [37]: 91%; viability, T/C [38]: 88.6%; viability, T/C (second compound 10 µM, first compound 0.000316 µM): 8.54%; viability, T/C (second compound 10 µM, first compound 0.001 µM): 8.37%; viability, T/C [39]: 34.9%; viability, T/C [40]: 24% |
| 8480 nM | > 10000 nM | 2770 nM | 1350 nM | < 31.6 nM | COc1cccc2c1C(=O)c1c(O)c3c(c(O)c1C2=O)CC(O)(C(=O)CO)CC3OC1CC(N)C(O)C(C)O1 (stereo not given) + Cc1cncc(-c2nc(NCCc3c[nH]c4ccccc34)c3ncn(C(C)C)c3n2)c1 | 102% | 84.1% | 80.3% | 83.2% | 73.8% | 90.8% | 79.8% | 78% | 87.4% | 72.8% | 76.9% | 81.8% | 87.1% | 7.64% | 13.7% | viability, T/C [5]: 49.3%; viability, T/C [6]: 51.2%; viability, T/C [11]: 61.3%; viability, T/C [12]: 50.6%; viability, T/C [16]: 71%; viability, T/C [17]: 46.9%; viability, T/C [18]: 32.5%; viability, T/C [21]: 77.5%; viability, T/C [22]: 60.8%; viability, T/C [23]: 21.3%; viability, T/C [24]: 4.5%; viability, T/C [27]: 41%; viability, T/C [28]: 13.4%; viability, T/C [29]: 14.4%; viability, T/C [30]: 0.5% |
| 1780 nM | 768 nM | > 10000 nM | 2970 nM | > 10000 nM | Nc1ccn(C2OC(CO)C(O)C2(F)F)c(=O)n1 (stereo not given) + Cc1cncc(-c2nc(NCCc3c[nH]c4ccccc34)c3ncn(C(C)C)c3n2)c1 | 95.4% | 72% | 71.8% | 50.5% | 76.5% | 82.7% | 68% | 45.4% | 84.8% | 81.7% | 64% | 74.5% | 75.2% | 52.6% | 44.9% | viability, T/C [5]: 41.4%; viability, T/C [6]: 47.2%; viability, T/C [11]: 40.1%; viability, T/C [12]: 45.9%; viability, T/C [16]: 57.6%; viability, T/C [17]: 43.9%; viability, T/C [18]: 61.9%; viability, T/C [21]: 69.2%; viability, T/C [22]: 60.1%; viability, T/C [23]: 38.6%; viability, T/C [24]: 60.2%; viability, T/C [27]: 56%; viability, T/C [28]: 47.3%; viability, T/C [29]: 53%; viability, T/C [30]: 51.9% |

Source: PubChem BioAssay AID1918993 (Molecular Pharmacology Branch, DTP, NCI, 2023)
